The text below walks through data of patent publication US20230382923A1, “FUSED TETRACYCLIC QUINAZOLINE DERIVATIVES AS INHIBITORS OF ERBB2” (EnLiven Therapeutics, Inc., priority 2021, published 2023).

Where two headings read alike, the source gives them in different places. A value given as a limit tells only on which side of the number the result lay.

Test [1] deals with Ba/F3 ERBB2 YVMA. The test is described as follows: Cell viability assay (CellTiter Glo, 72 hours). The class given is cell-based, mouse. The note with it: Mus musculus, BaF3, 72 h. On the procedure: Cells were treated with compounds, and cell viability was measured as a metric of kinase inhibition.
BT-474, A431, MDA-MB-175VII, NCI-H1781, MCF7, and Ba/F3 cell lines were tested. The Ba/F3 cell line is IL-3-dependent mouse cell line derived from the C3H mouse strain. Ba/F3 cell lines were engineered to express human ERBB2 or EGFR kinases, rendering the cells IL-3 independent. The lines were generated via retroviral transduction utilizing a Moloney murine leukemia virus (MMLV) promoter, and constructs are stably integrated into the cell genome. The sequences of the ERBB2 and EGFR genes used were NCBI Reference Sequences NM_004448.3 and NM_005228.3, respectively.
BT-474, A431, MDA-MB-175VII, NCI-H1781 and MCF7 cells were grown in the appropriate growth medium as described in Table B2 below, and harvested at 50-80% confluence. BT-474, A431, MDA-MB-175VII, NCI-H1781 and MCF7 cells were counted and seeded at 2,000 or 1,500 cells per well in 384-well tissue culture plates (see Table B2). Similarly, Ba/F3 cell lines engineered to express EGFR, ERBB2, or ERBB2 mutants were grown, harvested, counted and seeded at 3000 cells per well in 96-well plates. A subset of wells contained media only (low control, “LC”).
Table B1 provides the growth media and number of cells seeded per well for the each cell line.
Compounds were dissolved in DMSO and serially diluted. Serially-diluted compound or a DMSO only control (high control, “HC”) was added to the plated cells in each well. Compounds were tested at concentrations of about 10 μM to 0.51 nM, using three-fold dilutions. The final proportion of DMSO never exceeded 0.1%.
Plates were placed in a 37° C., 5% CO2 incubator for 72 hours. Plates were then removed from the incubator and equilibrated for 15 minutes at room temperature. 40 μl of CellTiter Glo reagent (Promega) was added to measure the relative level of metabolically active cells by quantifying intracellular ATP concentrations. Plates were incubated for 30 minutes at room temperature, and luminescence was measured. Percent viability was normalized to a vehicle control only using the following formula: % viability=100×(LumSample−LumLC)/(LumHC−LumLC). Graphical curves were fitted using a nonlinear regression model with a sigmoidal dose response.

For test [2], the target named is phosphorylated ERBB2 (pERBB2) (Homo sapiens (Human), UniProt P04626). The test is described as follows: Detection of phosphorylated ERBB2 (pERBB2) by ELISA in BT-474 cells. The test is classed as cell-based. The note with it: four hours incubation with compound. The gist of the method: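 BT-474 cells were exposed to serially diluted compounds for 4 h at 37 °C, then lysed. Phospho-ERBB2 in lysates was captured by ELISA and detected with an HRP anti-phosphotyrosine antibody and TMB.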
phosphorylated ERBB2 (pERBB2), sequence (P04626 23-1255): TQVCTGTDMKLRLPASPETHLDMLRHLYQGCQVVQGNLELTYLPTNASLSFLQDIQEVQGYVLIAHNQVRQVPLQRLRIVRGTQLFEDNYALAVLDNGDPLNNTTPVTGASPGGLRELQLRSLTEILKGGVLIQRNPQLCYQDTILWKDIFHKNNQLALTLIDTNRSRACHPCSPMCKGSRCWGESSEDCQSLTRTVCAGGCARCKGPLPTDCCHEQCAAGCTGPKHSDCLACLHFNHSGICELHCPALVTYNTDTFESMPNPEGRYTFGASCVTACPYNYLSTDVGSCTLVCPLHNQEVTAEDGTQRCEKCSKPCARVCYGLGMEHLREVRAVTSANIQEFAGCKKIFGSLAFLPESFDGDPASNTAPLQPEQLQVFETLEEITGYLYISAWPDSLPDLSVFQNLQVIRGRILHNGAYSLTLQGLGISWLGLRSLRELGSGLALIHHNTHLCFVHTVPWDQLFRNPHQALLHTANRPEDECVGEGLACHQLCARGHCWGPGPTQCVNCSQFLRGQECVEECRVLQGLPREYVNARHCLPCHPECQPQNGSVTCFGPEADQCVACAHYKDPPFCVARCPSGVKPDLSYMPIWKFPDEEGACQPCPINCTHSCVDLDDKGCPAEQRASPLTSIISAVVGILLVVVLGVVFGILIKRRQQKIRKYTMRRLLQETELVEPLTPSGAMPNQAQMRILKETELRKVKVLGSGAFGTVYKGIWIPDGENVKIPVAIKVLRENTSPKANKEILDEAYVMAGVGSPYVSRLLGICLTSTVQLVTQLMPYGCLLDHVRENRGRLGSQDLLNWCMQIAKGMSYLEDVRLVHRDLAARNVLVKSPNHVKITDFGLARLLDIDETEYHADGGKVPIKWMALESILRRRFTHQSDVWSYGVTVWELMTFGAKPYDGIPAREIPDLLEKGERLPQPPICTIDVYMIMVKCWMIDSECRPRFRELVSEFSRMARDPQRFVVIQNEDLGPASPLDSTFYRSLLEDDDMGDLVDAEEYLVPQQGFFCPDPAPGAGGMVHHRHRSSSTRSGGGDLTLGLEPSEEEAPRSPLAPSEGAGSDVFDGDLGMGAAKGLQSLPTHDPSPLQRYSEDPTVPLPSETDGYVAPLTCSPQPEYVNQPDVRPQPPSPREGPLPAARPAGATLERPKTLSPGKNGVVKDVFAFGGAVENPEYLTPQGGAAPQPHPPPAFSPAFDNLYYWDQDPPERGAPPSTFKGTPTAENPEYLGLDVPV

Test [3] has as its target phosphorylated EGFR (pEGFR) (Homo sapiens (Human), UniProt P00533). The test is described as follows: Detection of phosphorylated EGFR (pEGFR) by AlphaLISA in A431 cells. The note with it: A431 cells (10% FBS), 4 hours incubation, EGF 30 ng/mL for 10 minutes. The test is classed as cell-based. In outline:
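A431 cells in 10% FBS exposed to compound for 4 h at 37 °C, then stimulated 10 min with 30 ng/mL EGF. Lysates assayed for phospho-EGFR by AlphaLISA. % inhibition relative to DMSO and staurosporine controls; IC50 from four-parameter curve fit.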

[4] abbreviates: read-out: Ba/F3 ERBB2 YVMA, IC50, nM.

phosphorylated EGFR (pEGFR), sequence (P00533 25-1210): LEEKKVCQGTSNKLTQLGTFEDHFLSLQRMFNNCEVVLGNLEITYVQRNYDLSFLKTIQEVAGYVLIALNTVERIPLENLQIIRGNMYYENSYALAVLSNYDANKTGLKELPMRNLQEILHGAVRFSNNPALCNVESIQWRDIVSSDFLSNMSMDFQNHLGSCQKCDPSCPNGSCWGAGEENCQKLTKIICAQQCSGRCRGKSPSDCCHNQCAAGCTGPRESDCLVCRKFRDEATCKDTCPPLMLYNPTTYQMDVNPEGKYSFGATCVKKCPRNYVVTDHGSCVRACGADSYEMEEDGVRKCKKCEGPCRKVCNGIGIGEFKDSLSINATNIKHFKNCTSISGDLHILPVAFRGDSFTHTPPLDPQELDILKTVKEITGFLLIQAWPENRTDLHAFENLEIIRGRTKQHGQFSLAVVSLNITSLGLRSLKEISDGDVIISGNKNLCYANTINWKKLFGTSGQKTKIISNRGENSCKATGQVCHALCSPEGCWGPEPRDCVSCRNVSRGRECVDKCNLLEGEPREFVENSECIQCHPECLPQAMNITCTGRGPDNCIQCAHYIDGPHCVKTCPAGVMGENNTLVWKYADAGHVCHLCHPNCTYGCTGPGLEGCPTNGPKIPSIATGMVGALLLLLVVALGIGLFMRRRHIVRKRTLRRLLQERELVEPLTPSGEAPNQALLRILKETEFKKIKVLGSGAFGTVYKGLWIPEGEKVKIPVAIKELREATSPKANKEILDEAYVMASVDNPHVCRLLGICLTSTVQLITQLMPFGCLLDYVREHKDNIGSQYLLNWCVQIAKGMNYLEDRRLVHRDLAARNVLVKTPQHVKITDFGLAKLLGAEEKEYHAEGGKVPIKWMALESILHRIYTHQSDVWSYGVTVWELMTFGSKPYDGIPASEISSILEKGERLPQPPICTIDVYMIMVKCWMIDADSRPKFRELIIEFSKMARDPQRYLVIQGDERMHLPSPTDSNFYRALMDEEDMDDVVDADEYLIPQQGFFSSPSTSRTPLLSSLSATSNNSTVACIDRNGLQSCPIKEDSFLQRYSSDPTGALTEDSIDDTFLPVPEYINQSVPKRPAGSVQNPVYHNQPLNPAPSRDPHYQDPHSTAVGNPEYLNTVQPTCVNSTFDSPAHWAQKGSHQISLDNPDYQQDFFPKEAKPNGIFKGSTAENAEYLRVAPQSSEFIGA

`C=CC(=O)N1CCN2CC1COc1cc3ncnc(Nc4ccc(Oc5ccc6c(c5)ncn6C)c(C)c4)c3cc12` (stereo in doubt) [Compound 3, 1-((10S)-4-((3-methyl-4-((1-methyl-1H-benzo[d]imidazol-5-yl)oxy)phenyl)amino)-7,8,10,11-tetrahydro-9H-6,10-methano[1,4,7]oxadiazonino[3,2-g]quinazolin-9-yl)prop-2-en-1-one]: the IC50 in test [1] (setting [4]) came to 18 nM; in test [2] it was 0.0283 µM; in test [3], 1.47 µM.

For the compound `Cc1cc(Nc2ncnc3cc4c(nc23)N2CCN(C(=O)/C=C/CN3CCC3)C(CO4)C2)ccc1Oc1ccn2ncnc2c1` (stereo in doubt) [Compound 26, (E)-1-((10S)-4-((4-([1,2,4]triazolo[1,5-a]pyridin-7-yloxy)-3-methylphenyl)amino)-7,8,10,11-tetrahydro-9H-6,10-methanopyrimido[4′,5′:5,6]pyrido[3,2-b][1,4,7]oxadiazonin-9-yl)-4-(azetidin-1-yl)but-2-en-1-one], the IC50 in test [1] (setting [4]) is 24.9 nM; in test [2] it was 0.0411 µM; in test [3] it was > 10 µM.

As to `C=CC(=O)N1CCN2CC1COc1cc3ncnc(Nc4ccc(Oc5ccn6ccnc6c5)c(C)c4)c3nc12` (stereo in doubt) [Compound 33, 1-((10S)-4-((4-(imidazo[1,2-a]pyridin-7-yloxy)-3-methylphenyl)amino)-7,8,10,11-tetrahydro-9H-6,10-methanopyrimido[4′,5′:5,6]pyrido[3,2-b][1,4,7]oxadiazonin-9-yl)prop-2-en-1-one], the IC50 was 12 nM in test [1] (setting [4]), 0.0168 µM in test [2] and 0.164 µM in test [3].

With `CC#CC(=O)N1CCN2CC1COc1cc3ncnc(Nc4ccc(Oc5ccn6ncnc6c5)c(C)c4)c3cc12` (stereo in doubt) [Compound 17, 1-((10R)-4-((4-([1,2,4]triazolo[1,5-a]pyridin-7-yloxy)-3-methylphenyl)amino)-7,8,10,11-tetrahydro-9H-6,10-methano[1,4,7]oxadiazonino[3,2-g]quinazolin-9-yl)but-2-yn-1-one], the IC50 was > 500 nM in test [1] (Ba/F3 cells engineered to express human ERBB2 YVMA mutant, 72 hours, CellTiter Glo viability, read-out: Ba/F3 ERBB2 YVMA, IC50); 1.05 µM in test [2]; > 10 µM in test [3].

For `C=CC(=O)N1CCN2CC1COc1cc3ncnc(Nc4ccc(Oc5ccn6ncnc6c5)c(C)c4)c3cc12` (stereo in doubt) [Compound 5, 1-((10R)-4-((4-([1,2,4]triazolo[1,5-a]pyridin-7-yloxy)-3-methylphenyl)amino)-7,8,10,11-tetrahydro-9H-6,10-methano[1,4,7]oxadiazonino[3,2-g]quinazolin-9-yl)prop-2-en-1-one], the IC50 was 304 nM in test [1] (setting [4]), 1.2 µM in test [2] and > 10 µM in test [3].

On to `C=CC(=O)N1CCN2CC1COc1cc3ncnc(Nc4ccc(Oc5ccc6c(c5)ncn6C)c(C)c4)c3nc12` (stereo in doubt) [Compound 14, 1-((10S)-4-((3-methyl-4-((1-methyl-1H-benzo[d]imidazol-5-yl)oxy)phenyl)amino)-7,8,10,11-tetrahydro-9H-6,10-methanopyrimido[4′,5′:5,6]pyrido[3,2-b][1,4,7]oxadiazonin-9-yl)prop-2-en-1-one], for which the IC50 in test [1] (setting [4]) is 21.6 nM; in test [2] it was 0.0438 µM; in test [3], 0.532 µM.
